Measurements taken from patent US7045516B1, “Benzoxazole derivatives and drugs containing the same as the active ingredient” (Koichi Shudo, priority 1998, dated 2006).

Test system: not listed separately
Experiment: Reverse mutation test
Conditions: not given
Method: A reverse mutagenicity test was performed using the compound of Example 1 (b) of the present specification, hydrochloride of 5,7-dimethyl-2-(1-piperazinyl)benzoxazole (C), hydrochloride of 5-chloro-7-methyl-2-(4-methyl-1-piperazinyl)benzoxazole (D), and hydrochloride of 5-chloro-7-methyl-2-(4-methyl-1-homopiperazinyl) benzoxazole (E) (compounds disclosed in Japanese Patent Publication (KOKAI) No. 10-29987/1998), and the compound described in Reference Example 4 of the present specification, i.e., hydrochloride of 5-chloro-7-methyl-2-(1-piperazinyl) benzoxazole (F) according to the method of T. Matsushima et al. (Noropoth K. H., Springer, Berlin-Heidelberg-New York, “Short-Term Test Systems For Detecting Carcinogens”, pp. 273–285, 1980) referred by the guideline 471 of ORGANIZATION FOR ECONOMIC CO-OPERATION AND DEVELOPMENT.

Compound	reverse mutagenicity
Cc1cc(Cl)cc2nc(N3CCCN(C)CC3)oc12.Cl [Hydrochloride of E, hydrochloride of 5-chloro-7-methyl-2-(4-methyl-1-homopiperazinyl)benzoxazole]	negative

Same assay, conditions: method of Matsushima et al., OECD guideline 471

Compound	reverse mutagenicity
Cc1cc(Cl)cc2nc(N3CCNCC3)oc12.Cl [hydrochloride of Compound F, hydrochloride of 5-chloro-7-methyl-2-(1-piperazinyl) benzoxazole]	positive
Cc1cc(Cl)cc2nc(N3CCN(C)CC3)oc12.Cl [Hydrochloride of D, hydrochloride of 5-chloro-7-methyl-2-(4-methyl-1-piperazinyl) benzoxazole]	negative

Test system: large bowel transportation ability of normal mice
Experiment: Effect on large bowel transportation ability of normal mice (glass bead excretion)
Type: in vivo, mouse
Conditions: dose 3 mg/kg oral, ddY male mice, bead inserted after 30 minutes
Method: G. et al. [Drug Dev. Res., 9, 241-247, (1986)] was determined as follows. Each test compound was orally administered to 5- to 7-week old ddY male mice starved for about 4 hours. […] After the insertion of the glass bead, time (second) from the insertion to excretion of the bead from the anus was measured, and the time was used as an index of large bowel transportation ability. The test was performed by using groups of mice each consisting of 9 to 11 mice, and all of the procedures were performed under no anesthesia.

Compound	time from insertion to excretion of glass bead [s]
Cc1cc(Cl)cc2nc(N3CCCN(C)CC3)oc12.Cl [Hydrochloride of E, hydrochloride of 5-chloro-7-methyl-2-(4-methyl-1-homopiperazinyl)benzoxazole]	271.91
CN1C2CCCC1CC(NC(=O)c1nn(C)c3ccccc13)C2 (centres unmarked) [G, Granisetron]	206.44

Same assay, conditions: dose 10 mg/kg oral, ddY male mice, bead inserted after 30 minutes

Compound	time from insertion to excretion of glass bead [s]
Cc1cc(Cl)cc2nc(N3CCCN(C)CC3)oc12.Cl [Hydrochloride of E, hydrochloride of 5-chloro-7-methyl-2-(4-methyl-1-homopiperazinyl)benzoxazole]	318.95
CN1C2CCCC1CC(NC(=O)c1nn(C)c3ccccc13)C2 (centres unmarked) [G, Granisetron]	258.47

Same assay, conditions: dose 30 mg/kg oral, ddY male mice, bead inserted after 30 minutes

Compound	time from insertion to excretion of glass bead [s]
Cc1cc(Cl)cc2nc(N3CCCN(C)CC3)oc12.Cl [Hydrochloride of E, hydrochloride of 5-chloro-7-methyl-2-(4-methyl-1-homopiperazinyl)benzoxazole]	248.56
CN1C2CCCC1CC(NC(=O)c1nn(C)c3ccccc13)C2 (centres unmarked) [G, Granisetron]	475.93

Target: T1, 5-HT3 receptor (Cavia porcellus, UniProt O70212)
T1 construct: From ileum of Hartley male guinea pigs (500 g to 800 g) longitudinal muscle samples of about 20 mm were prepared; from tissue; host or cells: guinea pig ileum longitudinal muscle
T1 sequence (O70212 20-490): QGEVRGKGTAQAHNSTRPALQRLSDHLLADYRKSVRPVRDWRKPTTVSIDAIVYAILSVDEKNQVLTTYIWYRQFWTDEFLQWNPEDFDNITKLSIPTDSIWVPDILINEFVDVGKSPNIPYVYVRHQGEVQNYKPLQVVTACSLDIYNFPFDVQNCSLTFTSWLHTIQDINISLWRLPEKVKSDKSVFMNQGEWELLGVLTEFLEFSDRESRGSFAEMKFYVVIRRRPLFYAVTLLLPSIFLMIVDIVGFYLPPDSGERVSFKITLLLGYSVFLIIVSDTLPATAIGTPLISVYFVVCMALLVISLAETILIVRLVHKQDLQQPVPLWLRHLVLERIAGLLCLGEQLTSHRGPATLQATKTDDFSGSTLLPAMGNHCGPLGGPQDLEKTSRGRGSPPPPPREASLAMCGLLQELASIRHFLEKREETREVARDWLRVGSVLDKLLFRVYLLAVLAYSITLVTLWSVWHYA
Experiment: Test for 5-HT3 receptor activating action and antagonism, guinea pig ileum longitudinal muscle contraction
Type: cell-based
Conditions: inhibitory ratio of contraction by 10 μM 5-HT in sample treated beforehand with 10 μM compound; guinea pig ileum longitudinal muscle
Method: From ileum of Hartley male guinea pigs (500 g to 800 g) longitudinal muscle samples of about 20 mm were prepared. The samples were suspended at a resting tension of about 0.5 g in Magnus tubes, and isometric contraction reaction was measured. The samples were treated beforehand twice with 0.3 μM of 5-HT for 1 hour to desensitize the 5-HT4 receptors, and then given with 5-HT at a concentration of 0.1 to 30 μM to examine dose-dependent contraction reaction via the 5-HT3 receptors. […] The index of the 5-HT3 receptor activating action, i.a., is represented as a ratio of the maximum reaction obtained by each compound relative to the maximum contraction reaction obtained with 10 μM of 5-HT, which is defined to be 1. The index of strength of binding with the 5-HT3 receptor, pD2, is represented with a negative logarithmic value of a concentration (molar concentration) that gave 50% maximum contraction reaction for each compound. As for the antagonistic activity of each compound against the 5-HT3 receptor, inhibitory ratio was calculated, which represents a ratio of contraction obtained by applying 10 μM of 5-HT to a sample treated beforehand with 10 μM of each compound relative to the contraction obtained by applying 10 μM of 5-HT to an untreated sample.

inhibition at 10 µM [%]	Compound
89	CCc1cc(Cl)cc2nc(N3CCCNCC3)oc12 [Example 4, 5-Chloro-7-ethyl-2-(1-homopiperazinyl) benzoxazole]
96	Cc1c(Cl)cc2nc(N3CCCNCC3)oc2c1Cl [Example 10, 5,7-Dichloro-2-(1-homopiperazinyl)-6-methylbenzoxazole]
46	CS(=O)(=O)Nc1cc(Cl)cc2nc(N3CCCNCC3)oc12.Cl [Example 14, 5-Chloro-7-methanesulfonylamino-2-(1-homopiperazinyl) benzoxazole hydrochloride]
88	Clc1cc(NCc2ccccc2)c2oc(N3CCCNCC3)nc2c1 [Example 12, 7-(Benzylamino)-5-chloro-2-(1-homopiperazinyl) benzoxazole]
88	COc1cc(Cl)cc2nc(N3CCCNCC3)oc12 [Example 2, 5-Chloro-2-(1-homopiperazinyl)-7-methoxybenzoxazole]

Compound	inhibition at 10 µM [%]
Cc1cc(Cl)cc2nc(N3CCNCC3)oc12 [F, 5-chloro-7-methyl-2-(1-piperazinyl)benzoxazole, reference compound]	90
Cc1cc(Cl)cc2nc(N3CCN(C)CC3)oc12 [D, 5-chloro-7-methyl-2-(4-methyl-1-piperazinyl)benzoxazole, reference compound]	94

Same assay, conditions: negative logarithm of molar concentration giving 50% maximum contraction; read-out: Activating action pD2 (converted)

EC50 [nM]	Compound
17.8	CCc1cc(Cl)cc2nc(N3CCCNCC3)oc12 [Example 4, 5-Chloro-7-ethyl-2-(1-homopiperazinyl) benzoxazole]
56.2	Cc1c(Cl)cc2nc(N3CCCNCC3)oc2c1Cl [Example 10, 5,7-Dichloro-2-(1-homopiperazinyl)-6-methylbenzoxazole]
3390	CS(=O)(=O)Nc1cc(Cl)cc2nc(N3CCCNCC3)oc12.Cl [Example 14, 5-Chloro-7-methanesulfonylamino-2-(1-homopiperazinyl) benzoxazole hydrochloride]
191	Clc1cc(NCc2ccccc2)c2oc(N3CCCNCC3)nc2c1 [Example 12, 7-(Benzylamino)-5-chloro-2-(1-homopiperazinyl) benzoxazole]
295	COc1cc(Cl)cc2nc(N3CCCNCC3)oc12 [Example 2, 5-Chloro-2-(1-homopiperazinyl)-7-methoxybenzoxazole]

Compound	EC50 [nM]
Cc1cc(Cl)cc2nc(N3CCNCC3)oc12 [F, 5-chloro-7-methyl-2-(1-piperazinyl)benzoxazole, reference compound]	27.5
Cc1cc(Cl)cc2nc(N3CCN(C)CC3)oc12 [D, 5-chloro-7-methyl-2-(4-methyl-1-piperazinyl)benzoxazole, reference compound]	162

Same assay, conditions: ratio of maximum contraction by compound relative to maximum contraction with 10 μM 5-HT (defined as 1)

Activating action i.a.	Compound
0.09	Cc1c(Cl)cc2nc(N3CCCNCC3)oc2c1Cl [Example 10, 5,7-Dichloro-2-(1-homopiperazinyl)-6-methylbenzoxazole]
0.13	CS(=O)(=O)Nc1cc(Cl)cc2nc(N3CCCNCC3)oc12.Cl [Example 14, 5-Chloro-7-methanesulfonylamino-2-(1-homopiperazinyl) benzoxazole hydrochloride]
0.05	Clc1cc(NCc2ccccc2)c2oc(N3CCCNCC3)nc2c1 [Example 12, 7-(Benzylamino)-5-chloro-2-(1-homopiperazinyl) benzoxazole]
0.36	COc1cc(Cl)cc2nc(N3CCCNCC3)oc12 [Example 2, 5-Chloro-2-(1-homopiperazinyl)-7-methoxybenzoxazole]

Compound	Activating action i.a.
Cc1cc(Cl)cc2nc(N3CCNCC3)oc12 [F, 5-chloro-7-methyl-2-(1-piperazinyl)benzoxazole, reference compound]	0.14
Cc1cc(Cl)cc2nc(N3CCN(C)CC3)oc12 [D, 5-chloro-7-methyl-2-(4-methyl-1-piperazinyl)benzoxazole, reference compound]	0.27

Test system: not listed separately
Experiment: Metabolic activity in human liver, in vitro system with S9 fraction
Type: in vitro ADME
Conditions: 50 μmol/L test compound, 1 mg/mL human liver S9, NADPH production system, 37 °C, 15 minutes
Method: The test was performed in an in vitro system utilizing human liver S9 fraction in the presence of an NADPH production system described below. A reaction mixture of a total volume of 125 μL containing components at given final concentrations was prepared (50 μmol/L of test compound, 6 mmol/L of MgCl2.6H2O, 1 mmol/L of β-NADP^+, 10 mmol/L of glucose-6-phosphate (G-6-P), 0.7 U/mL of G-6-P dehydrogenase, 100 mmol/L of potassium phosphate (pH 7.4), 0.1 mmol/L of EDTANa2, and 1 mg/mL of human liver S9), and incubated at 37 C.° for 15 minutes. The reaction was stopped by the addition of 125 μL of N,N-dimethylformamide containing a substance for internal standard. The reaction mixture was centrifuged (2,000×g, 10 minutes), and the supernatant was subjected to HPLC analysis to determine the concentration of unchanged substance. Consumed amount was calculated from the concentration of unchanged substance, and the metabolic rate was represented as activity per unit amount of protein.

Compound	Metabolic activity [nmol/min/mg protein]
Cc1cc(Cl)cc2nc(N3CCN(C)CC3)oc12.Cl [Hydrochloride of D, hydrochloride of 5-chloro-7-methyl-2-(4-methyl-1-piperazinyl) benzoxazole]	0.87

Test system: rat diarrhea under restriction stress
Experiment: Inhibitory action for rat diarrhea under restriction stress
Type: in vivo
Conditions: Rattus norvegicus; oral, 30 min before restraint; male Wistar rats; 3 hours; nonlinear least square method
Method: L. Williams et al. [GASTROENTEROLOGY, 94, 611–621 (1988)] was determined as follows, and the results were analyzed by the nonlinear least square method. 8-Week old male Wistar rats were starved from the evening of the day before the test. Each test compound was orally administered to the rats. After 30 minutes, the rats were constrained by binding of their fore-limbs and hind-limbs with wires. The rats were left in individual gages on white sheets under luminescent lamps for 3 hours. […] The test was performed with groups of rats each consisting of 8 rats.

Compound	ED50 [mg/kg]
CN1C2CCCC1CC(NC(=O)c1nn(C)c3ccccc13)C2 (centres unmarked) [G, Granisetron]	0.025

Same assay, conditions: oral, 30 min before restraint; male Wistar rats; 3 hours; nonlinear least square method

Compound	ED50 value [mg/kg]
Cc1cc(Cl)cc2nc(N3CCCN(C)CC3)oc12.Cl [Hydrochloride of E, hydrochloride of 5-chloro-7-methyl-2-(4-methyl-1-homopiperazinyl)benzoxazole]	0.0041
